# Source: patent US8754069B2, “Betulinic acid derivatives with antiviral activity” (priority 2011, dated 2014)
# Test system: recombinant NL4-3 virus (NLRluc, Renilla luciferase in nef, Gag P373S) in MT-2 cells
# Test: HIV Cell Culture Assay (luciferase reporter virus in MT-2 cells)
# Assay type: cell-based
# Settings: NL43, 96 h, read-out: 10% FBS (EC50, uM)
# Experimental: HIV Cell Culture Assay—MT-2 cells and 293T cells were obtained from the NIH AIDS Research and Reference Reagent Program. MT-2 cells were propagated in RPMI 1640 media supplemented with 10% heat inactivated fetal bovine serum, […]. The 293T cells were propagated in DMEM media supplemented with 10% heat inactivated fetal bovine serum (FBS), 100 units/ml penicillin G and 100 μg/ml streptomycin. The proviral DNA clone of NL4-3 was obtained from the NIH AIDS Research and Reference Reagent Program. A recombinant NL4-3 virus, in which a section of the nef gene from NL4-3 was replaced with the Renilla luciferase gene, was used as a reference virus. In addition, residue Gag P373 was converted to P373S. Briefly, the recombinant virus was prepared by transfection of the altered proviral clone of NL4-3. Transfections were performed in 293T cells using LipofectAMINE PLUS from Invitrogen (Carlsbad, Calif.), according to manufacturer's instruction. The virus was titered in MT-2 cells using luciferase enzyme activity as a marker. Luciferase was quantitated using the Dual Luciferase kit from Promega (Madison, Wis.), with modifications to the manufacturer's protocol. The diluted Passive Lysis solution was pre-mixed with the re-suspended Luciferase Assay Reagent and the re-suspended Stop & Glo Substrate (2:1:1 ratio). Fifty (50) μL of the mixture was added to each aspirated well on assay plates and luciferase activity was measured immediately on a Wallac TriLux (Perkin-Elmer). Antiviral activities of inhibitors toward the recombinant virus were quantified by measuring luciferase activity in cells infected for 4-days with NLRluc recombinants in the presence serial dilutions of the inhibitor. Table 1 is the key for the data in Table 2. Results
row,SMILES,EC50 [µM]
1,"C=C(C)[C@@H]1CC[C@]2(NCCN3CCS(=O)(=O)CC3)CC[C@]3(C)[C@H](CC[C@@H]4[C@@]5(C)CC[C@H](OC(=O)C(C)(C)CC(=O)O)C(C)(C)[C@@H]5CC[C@]43C)[C@@H]12 [Example 1, 4-(((1R,3aS,5aR,5bR,7aR,9S,11aR,13aR,13bR)-3a-((2-(1,1-dioxido-4-thiomorpholinyl)ethyl)amino)-1-isopropenyl-5a,5b,8,8,11a-pentamethylicosahydro-1H-cyclopenta[a]chrysen-9-yl)oxy)-3,3-dimethyl-4-oxobutanoic acid]",< 0.1
2,"C=C(C)[C@@H]1CC[C@]2(NCCN3CCS(=O)(=O)CC3)CC[C@]3(C)[C@H](CC[C@@H]4[C@@]5(C)CC[C@H](OC(=O)CC(C)(C)C(=O)O)C(C)(C)[C@@H]5CC[C@]43C)[C@@H]12 [Example 2, 4-(((1R,3aS,5aR,5bR,7aR,9S,11aR,13aR,13bR)-3a-((2-(1,1-dioxido-4-thiomorpholinyl)ethyl)amino)-1-isopropenyl-5a,5b,8,8,11a-pentamethylicosahydro-1H-cyclopenta[a]chrysen-9-yl)oxy)-2,2-dimethyl-4-oxobutanoic acid]",< 0.1
3,"C=C(C)[C@@H]1CC[C@]2(NCCN3CCS(=O)(=O)CC3)CC[C@]3(C)[C@H](CC[C@@H]4[C@@]5(C)CC[C@H](OC(=O)CC(C)(C)CC(=O)O)C(C)(C)[C@@H]5CC[C@]43C)[C@@H]12 [Example 3, 5-(((1R,3aS,5aR,5bR,7aR,9aR,9S,11aR,3aR,13bR)-3a-((2-(1,1-dioxido-4-thiomorpholinyl)ethyl)amino)-1-isopropenyl-5a,5b,8,8,11a-pentamethylicosahydro-1H-cyclopenta[a]chrysen-9-yl)oxy)-3,3-dimethyl-5-oxopentanoic acid]",< 0.1
4,"C=C(C)[C@@H]1CC[C@]2(NCCN3CCOCC3)CC[C@]3(C)[C@H](CC[C@@H]4[C@@]5(C)CC[C@H](OC(=O)C(C)(C)CC(=O)O)C(C)(C)[C@@H]5CC[C@]43C)[C@@H]12 [Example 4, 3,3-dimethyl-4-oxo-4-((1R,3aS,5aR,5bR,7aR,9S,11aR,13aR,13bR)-5a,5b,8,8,11a-pentamethyl-3a-(2-morpholinoethylamino)-1-(prop-1-en-2-yl)icosahydro-1H-cyclopenta[a]chrysen-9-yloxy)butanoic acid]",< 0.1
5,"C=C(C)[C@@H]1CC[C@]2(NCCN3CCOCC3)CC[C@]3(C)[C@H](CC[C@@H]4[C@@]5(C)CC[C@H](OC(=O)CC(C)(C)C(=O)O)C(C)(C)[C@@H]5CC[C@]43C)[C@@H]12 [Example 5, 2,2-dimethyl-4-oxo-4-((1R,3aS,5aR,5bR,7aR,9S,11aR,13aR,13bR)-5a,5b,8,8,11a-pentamethyl-3a-(2-morpholinoethylamino)-1-(prop-1-en-2-yl)icosahydro-1H-cyclopenta[a]chrysen-9-yloxy)butanoic acid]",< 0.1
6,"CC(C)[C@@H]1CC[C@]2(NCCN3CCS(=O)(=O)CC3)CC[C@]3(C)[C@H](CC[C@@H]4[C@@]5(C)CC[C@H](OC(=O)CC(C)(C)C(=O)O)C(C)(C)[C@@H]5CC[C@]43C)[C@@H]12 [Example 6, 4-(((1S,3aS,5aR,5bR,7aR,9S,11aR,13aR,13bR)-3a-((2-(1,1-dioxido-4-thiomorpholinyl)ethyl)amino)-1-isopropyl-5a,5b,8,8,11a-pentamethylicosahydro-1H-cyclopenta[a]chrysen-9-yl)oxy)-2,2-dimethyl-4-oxobutanoic acid]",< 0.1
7,"CC(C)[C@@H]1CC[C@]2(NCCN3CCS(=O)(=O)CC3)CC[C@]3(C)[C@H](CC[C@@H]4[C@@]5(C)CC[C@H](OC(=O)CC(C)(C)CC(=O)O)C(C)(C)[C@@H]5CC[C@]43C)[C@@H]12 [Example 7, 5-(((1S,3aS,5aR,5bR,7aR,9aR,9S,11aR,3aR,13bR)-3a-((2-(1,1-dioxido-4-thiomorpholinyl)ethyl)amino)-1-isopropyl-5a,5b,8,8,11a-pentamethylicosahydro-1H-cyclopenta[a]chrysen-9-yl)oxy)-3,3-dimethyl-5-oxopentanoic acid]",< 0.1
8,"C=C(C)[C@@H]1CC[C@]2(NCCN3CCC(S(C)(=O)=O)CC3)CC[C@]3(C)[C@H](CC[C@@H]4[C@@]5(C)CC[C@H](OC(=O)C(C)(C)CC(=O)O)C(C)(C)[C@@H]5CC[C@]43C)[C@@H]12 [Example 8, 3,3-dimethyl-4-oxo-4-(((1R,3aS,5aR,5bR,7aR,9S,11aR,13aR,13bR)-5a,5b,8,8,11a-pentamethyl-3a-((2-(4-(methylsulfonyl)piperidin-1-yl)ethyl)amino)-1-(prop-1-en-2-yl)icosahydro-1H-cyclopenta[a]chrysen-9-yl)oxy)butanoic acid]",< 0.1
9,"C=C(C)[C@@H]1CC[C@]2(NCCN3CCC(S(C)(=O)=O)CC3)CC[C@]3(C)[C@H](CCC4[C@@]5(C)CC[C@H](OC(=O)CC(C)(C)C(=O)O)C(C)(C)[C@@H]5CC[C@]43C)[C@@H]12 (stereo partly drawn) [Example 9, 2,2-dimethyl-4-oxo-4-(((1R,3aS,5aR,5bR,7aR,9S,11aR,13aR,13bR)-5a,5b,8,8,11a-pentamethyl-3a-((2-(4-(methylsulfonyl)piperidin-1-yl)ethyl)amino)-1-(prop-1-en-2-yl)icosahydro-1H-cyclopenta[a]chrysen-9-yl)oxy)butanoic acid]",< 0.1
10,"C=C(C)[C@@H]1CC[C@]2(NCCN(C)C)CC[C@]3(C)[C@H](CC[C@@H]4[C@@]5(C)CC[C@H](OC(=O)CC(C)(C)C(=O)O)C(C)(C)[C@@H]5CC[C@]43C)[C@@H]12 [Example 10, 4-(((1R,3aS,5aR,5bR,7aR,9S,11aR,13aR,13bR)-3a-((2-(dimethylamino)ethyl)amino)-5a,5b,8,8,11a-pentamethyl-1-(prop-1-en-2-yl)icosahydro-1H-cyclopenta[a]chrysen-9-yl)oxy)-2,2-dimethyl-4-oxobutanoic acid]",< 0.1
11,"C=C(C)[C@@H]1CC[C@]2(NCCN3CCN(S(C)(=O)=O)CC3)CC[C@]3(C)[C@H](CC[C@@H]4[C@@]5(C)CC[C@H](OC(=O)CC(C)(C)C(=O)O)C(C)(C)[C@@H]5CC[C@]43C)[C@@H]12 [Example 11, 2,2-dimethyl-4-oxo-4-(((1R,3aS,5aR,5bR,7aR,9S,11aR,11bR,13aR,13bR)-5a,5b,8,8,11a-pentamethyl-3a-((2-(4-(methylsulfonyl)piperazin-1-yl)ethyl)amino)-1-(prop-1-en-2-yl)icosahydro-1H-cyclopenta[a]chrysen-9-yl)oxy)butanoic acid]",< 0.1
